ChEMBL document CHEMBL1201862, “PubChem BioAssay data set” (2004)
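The compound was tested at five concentrations on cells cultured in 96-well plates, with a 48-hour exposure period. The concentration for 50% growth inhibition is given as GI50.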 Activity calls are given as the source filed them. Rule as the data show it: active = GI50 up to about 1.1 µM and inactive = higher.

Assays:
Experiment in all cases: inhibition of tumour cell growth, NCI panel, 48 h
[1] = test system: Hs-578T
[2] = test system: DU-145
[3] = test system: MDA-N
[4] = test system: MOLT-4
[5] = test system: NCI-H226
[6] = test system: NCI-H460
[7] = test system: HCC 2998
[8] = test system: Malme-3M
[9] = test system: SK-MEL-2
[10] = test system: K562
[11] = test system: SF-295
[12] = test system: SN12C
[13] = test system: SK-OV-3
[14] = test system: TK-10
[15] = test system: A549
[16] = test system: HCT-116
[17] = test system: RXF 393
[18] = test system: SF-268

Measured: GI50

COc1ccc(/C=C/C(=O)Oc2ccccc2OC)cc1
inactive: [1] 41.7 µM | [2] > 61.8 µM | [3] 36.4 µM | [4] 1.57 µM | [5] > 96.6 µM | [6] > 100 µM | [7] 16.6 µM | [8] 56.9 µM | [9] 39 µM | [10] 23.8 µM | [11] 3.21 µM | [12] 13.9 µM | [13] > 100 µM | [14] > 81.8 µM | [15] 37.8 µM | [16] 2.91 µM | [17] > 51.5 µM | [18] 1.81 µM

CN(C)CCNc1ccc(C(=O)NCCCN(C)CCCNC(=O)c2ccc(NCCN(C)C)c3c(=O)c4ccccc4[nH]c23)c2[nH]c3ccccc3c(=O)c12
active: [1] < 0.0347 µM | [2] < 0.0134 µM | [3] 0.0346 µM | [4] < 0.01 µM | [5] 0.0199 µM | [6] < 0.0163 µM | [7] 0.0246 µM | [8] 0.0467 µM | [9] 0.0489 µM | [10] 0.0332 µM | [11] 0.0328 µM | [12] < 0.01 µM | [13] 0.109 µM | [14] 0.828 µM | [15] < 0.01 µM | [16] < 0.01 µM | [17] 0.0809 µM | [18] < 0.01 µM

O=C(O)c1cnccc1-c1cc(=O)[nH]n1-c1ccccc1
inactive: [1] > 91.8 µM | [2] > 53.1 µM | [3] 41.8 µM | [4] 13.9 µM | [5] > 100 µM | [6] 35 µM | [7] 25 µM | [8] > 100 µM | [9] > 63.2 µM | [10] 10 µM | [11] 21.6 µM | [12] > 87.7 µM | [13] > 100 µM | [14] > 100 µM | [15] 48.9 µM | [16] 51.8 µM | [17] 98.6 µM | [18] > 83.2 µM

COC(=O)c1c(O)ccc2c1c1cc3ccccc3c(O)c1n2Cc1ccccc1Cl
inactive: [1] 27.1 µM | [2] 31.3 µM | [3] 23.7 µM | [4] 16.6 µM | [5] 31.8 µM | [6] 18.2 µM | [7] 20 µM | [8] 30.3 µM | [9] 17.7 µM | [10] 31.5 µM | [11] 18.8 µM | [12] 32.7 µM | [13] 12.9 µM | [14] 37.2 µM | [15] 23.5 µM | [16] 13.2 µM | [17] 23 µM | [18] 19.3 µM

C[N+](C)(CCNC(=O)c1cccc2cc3ccccc3nc12)Cc1ccc([N+](=O)[O-])cc1
inactive: [1] > 100 µM | [2] > 100 µM | [3] > 100 µM | [4] > 100 µM | [5] > 100 µM | [6] > 100 µM | [7] > 100 µM | [8] 49.5 µM | [9] > 100 µM | [10] > 100 µM | [11] > 100 µM | [12] > 100 µM | [13] > 100 µM | [14] > 100 µM | [15] > 100 µM | [16] > 100 µM | [17] > 100 µM | [18] > 100 µM
